Laboratory results published in ChEMBL document CHEMBL1146600, “Preparation of 7-substituted ginkgolide derivatives: potent platelet activating factor (PAF) receptor antagonists” (J Med Chem, 2003).

Biological target: Platelet-activating factor receptor (Cavia porcellus, UniProt P21556)
Assay: Displacement of [3H]-WEB 2086 from Platelet activating factor receptor (guinea pig) transgenic mouse muscle membrane

Sequence of Platelet-activating factor receptor (P21556 whole entry): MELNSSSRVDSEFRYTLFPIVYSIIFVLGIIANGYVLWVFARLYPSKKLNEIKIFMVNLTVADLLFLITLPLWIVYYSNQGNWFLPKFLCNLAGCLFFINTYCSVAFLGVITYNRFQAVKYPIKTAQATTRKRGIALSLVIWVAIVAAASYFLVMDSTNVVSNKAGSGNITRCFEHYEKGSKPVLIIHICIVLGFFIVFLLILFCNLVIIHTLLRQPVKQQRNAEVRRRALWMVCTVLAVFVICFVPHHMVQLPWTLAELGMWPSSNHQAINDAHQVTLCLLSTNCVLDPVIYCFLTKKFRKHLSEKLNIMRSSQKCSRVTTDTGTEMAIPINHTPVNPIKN

Compound	Ki [µM]
C[C@@H]1C(=O)OC2[C@H](O)C34C5OC(=O)C3(OC3OC(=O)[C@H](O)C34[C@@H](C(C)(C)C)[C@H]5N=[N+]=[N-])[C@]21O (some centres undefined)	0.55
C[C@@H]1C(=O)OC2[C@H](O)C34C5OC(=O)C3(OC3OC(=O)[C@H](O)C34[C@@H](C(C)(C)C)[C@H]5F)[C@]21O (some centres undefined)	0.99
C[C@@H]1C(=O)OC2[C@H](O)C34C5OC(=O)C3(OC3OC(=O)[C@H](OCc6ccccc6)C34[C@@H](C(C)(C)C)[C@@H]5O)[C@]21O (some centres undefined)	1.67
C[C@@H]1C(=O)OC2[C@H](O)C34C5C[C@H](C(C)(C)C)C36C(OC(=O)[C@@H]6OCc3ccccc3)OC4(C(=O)O5)[C@]21O (some centres undefined)	0.12
CN[C@H]1C2OC(=O)C34OC5OC(=O)[C@H](O)C5([C@H]1C(C)(C)C)C23[C@@H](O)C1OC(=O)[C@@H](C)[C@@]14O (some centres undefined)	0.61
C[C@@H]1C(=O)OC2[C@H](O)C34C5OC(=O)C3(OC3OC(=O)[C@H](O)C34[C@@H](C(C)(C)C)[C@H]5N)[C@]21O (some centres undefined)	8.64
CC(=O)O[C@H]1C2OC(=O)C34OC5OC(=O)[C@H](O)C5([C@H]1C(C)(C)C)C23[C@@H](O)C1OC(=O)[C@@H](C)[C@@]14O (some centres undefined)	7.84
C[C@@H]1C(=O)OC2[C@H](O)C34C5OC(=O)C3(OC3OC(=O)[C@H](OCc6ccccc6)C34[C@@H](C(C)(C)C)[C@H]5O)[C@]21O (some centres undefined)	0.6
C[C@@H]1C(=O)OC2[C@H](O)C34C5OC(=O)C3(OC3OC(=O)[C@H](O)C34[C@@H](C(C)(C)C)[C@H]5Cl)[C@]21O (some centres undefined)	0.11
CCN[C@H]1C2OC(=O)C34OC5OC(=O)[C@H](O)C5([C@H]1C(C)(C)C)C23[C@@H](O)C1OC(=O)[C@@H](C)[C@@]14O (some centres undefined)	1.62
C[C@@H]1C(=O)OC2[C@H](O)C34C5OC(=O)C3(OC3OC(=O)[C@H](OCc6ccccc6)C34[C@@H](C(C)(C)C)[C@H]5F)[C@]21O (some centres undefined)	0.1
C[C@@H]1C(=O)O[C@H]2[C@H](O)[C@]34[C@@H]5OC(=O)[C@]3(OC3OC(=O)[C@H](O)C34C(C(C)(C)C)[C@@H]5O)[C@@]12O (single isomer, unassigned)	12.6
C[C@@H]1C(=O)O[C@H]2[C@H](O)[C@]34[C@@H]5OC(=O)[C@]3(OC3OC(=O)[C@H](O)C34C(C(C)(C)C)[C@H]5O)[C@@]12O (single isomer, unassigned)	4.26
C[C@@H]1C(=O)O[C@H]2[C@H](O)[C@@]34[C@H]5CC(C(C)(C)C)[C@]36[C@@H](OC(=O)[C@@H]6O)O[C@@]4(C(=O)O5)[C@@]12O (single isomer, unassigned) [GINKOLIDE B]	0.88
